Source: PubChem BioAssay AID1996
≈ marks a conversion by molar mass, not a printed value.

Conditions: buffer; pH 7.4; 200.0 µM
For `O=C(O)CN1CCCCCC1=O`, the solubility kinetic was greater than 25.7 µg/mL. With `CNCCc1c[nH]c2ccc(O)cc12.O=C(O)C(=O)O` the solubility kinetic was greater than 42 µg/mL. Compound `C=CCn1cc(C(=O)OCC)c(=O)c2cc(F)c(F)cc21` has a solubility kinetic greater than 44 µg/mL. In the case of `O=C(NC(O)C(=O)c1ccc(F)cc1)c1ccc(F)cc1` (stereo unspecified), the solubility kinetic is reported as greater than 43.7 µg/mL. Compound `COc1ccccc1NS(=O)(=O)c1ccc2[nH]c(=S)oc2c1` has a solubility kinetic greater than 50.5 µg/mL. Compound `Cc1c(F)cccc1NC(=O)CCCCCC1NC(=O)NC1C` (stereo unspecified) has a solubility kinetic of 46.7 µg/mL (≈ 145 µM). `COc1ccccc1C(=O)NCCC(=O)NCc1cccs1` showed a solubility kinetic greater than 47.8 µg/mL. In the case of `Cc1ccccc1NC(=S)Nc1ccc2[nH]c(=O)[nH]c2c1`, the solubility kinetic is reported as 41.7 µg/mL (≈ 140 µM). `O=C(NC1CCCCC1)c1cccnc1Sc1ccccc1` showed a solubility kinetic of 11.2 µg/mL (≈ 35.8 µM). In the case of `CCCCOc1ccc(C(=O)N2CCN(c3ncccn3)CC2)cc1`, the solubility kinetic is reported as 12.2 µg/mL (≈ 35.8 µM). Compound `COC1c2ccccc2C(=O)N1Cc1ccc(F)cc1` (stereo unspecified) has a solubility kinetic of 37.4 µg/mL (≈ 138 µM). Work on `Cc1cn(C2CCC(CO)O2)c(=O)[nH]c1=O` (stereo unspecified) yielded a solubility kinetic greater than 33.9 µg/mL. In the case of `N#C/C(=C\c1cccnc1)C(=O)Nc1ccccc1[N+](=O)[O-]`, the solubility kinetic is reported as 30.2 µg/mL (≈ 103 µM). For `CCN(C(=O)c1ccco1)C1C2CC3CC(C2)CC1C3` (stereo unspecified), the solubility kinetic was 26.1 µg/mL (≈ 95.5 µM). For `Cc1[nH]ccc(=O)c1OCC(=O)O`, the solubility kinetic was greater than 27.5 µg/mL. For `COc1ccc(NC(=O)Nc2ccc(Br)c(C)c2)cc1`, the solubility kinetic was less than 0.4 µg/mL. `O=C1CSC(c2cccc([N+](=O)[O-])c2)N1CCc1ccccc1` (stereo unspecified) gave a solubility kinetic of 25.8 µg/mL (≈ 78.6 µM). `CC(=O)Nc1ccc(C23CC4CC(CC(C4)C2)C3)cc1` showed a solubility kinetic of 0.8 µg/mL (≈ 2.97 µM). `COC(C(=O)Nc1ccc(Br)cc1F)c1ccccc1` (stereo unspecified) gave a solubility kinetic of 26.1 µg/mL (≈ 77.2 µM). Work on `O=C(Nc1ccc(Cl)cc1C(=O)N1CCCCC1)c1ccco1` yielded a solubility kinetic of 46.6 µg/mL (≈ 140 µM). Compound `CN(C(=O)COC(=O)c1cc[n+]([O-])cc1)c1ccccc1` has a solubility kinetic greater than 42.9 µg/mL. For `C=CCNC(=O)CN1N=C(c2ccc(C)cc2)CCC1=O`, the solubility kinetic was greater than 42.8 µg/mL. With `CCCN1CCN(C(=O)c2oc3c(Cl)cccc3c2C)CC1` the solubility kinetic was 35.7 µg/mL (≈ 111 µM). In the case of `COCc1cc(C)nc(Oc2ccccc2)c1C#N`, the solubility kinetic is reported as greater than 38.1 µg/mL. `CSc1ccc(Cl)c(C(=O)N2CCN(CC(=O)N3CCCC3)CC2)c1` showed a solubility kinetic greater than 57.3 µg/mL. For `Cc1ccc(CNC(=O)COC(=O)C2CC2)cc1`, the solubility kinetic was greater than 37.1 µg/mL. For `O=C1NC(=S)N/C1=C\c1cccnc1`, the solubility kinetic was greater than 30.8 µg/mL. For `CCOc1ccccc1NC(=O)Nc1ccon1`, the solubility kinetic was 15.5 µg/mL (≈ 62.7 µM). With `CCc1sc(-c2ccccc2)nc1C(=O)OC` the solubility kinetic was less than 0.5 µg/mL. `O=C(O)CCC(=O)Nc1ccc(Br)cc1C(=O)c1ccc(Cl)cc1` gave a solubility kinetic of 44.9 µg/mL (≈ 109 µM). `O=C(NCc1ccccn1)Nc1ccccc1Cl` gave a solubility kinetic greater than 39.3 µg/mL. For `CCOC(=O)N1CCN(Cc2nc3cc([N+](=O)[O-])ccc3n2C)CC1`, the solubility kinetic was 50.7 µg/mL (≈ 146 µM). For `CCC1CCCCN1Cc1c(O)ccc2c(=O)c(-c3ccccc3)coc12` (stereo unspecified), the solubility kinetic was 50.1 µg/mL (≈ 138 µM). `O=C(Nc1cccc(O)c1)C1CC(c2cccc(Br)c2)=NO1` (stereo unspecified) showed a solubility kinetic of 28 µg/mL (≈ 77.5 µM). In the case of `CC1Cc2ccccc2N1C(=O)COC(=O)c1ccc(O)cc1` (stereo unspecified), the solubility kinetic is reported as 5.1 µg/mL (≈ 16.4 µM). Work on `O=C(Nc1ccc(F)cc1)NC1CCCCCCC1` yielded a solubility kinetic of 1.6 µg/mL (≈ 6.05 µM). Work on `N#Cc1ccncc1Sc1ccc(Cl)cc1` yielded a solubility kinetic of 25.3 µg/mL (≈ 103 µM). `NC(=O)C1CCN(CC(O)CSc2ccccc2)CC1` (stereo unspecified) gave a solubility kinetic greater than 44.2 µg/mL. For `CCCCn1c(N)c(N(C)C(=O)C2CC(=O)N(Cc3ccco3)C2)c(=O)[nH]c1=O` (stereo unspecified), the solubility kinetic was greater than 60.5 µg/mL. `O=C(COC(=O)C1COc2ccccc2O1)NC1CCCCC1` (stereo unspecified) showed a solubility kinetic greater than 47.9 µg/mL. `CNS(=O)(=O)c1ccc(NS(=O)(=O)c2ccccc2F)cc1` gave a solubility kinetic of 51 µg/mL (≈ 148 µM). Compound `CC1(C)Cc2cccc(C(=O)NCc3ccco3)c2O1` has a solubility kinetic of 32.9 µg/mL (≈ 121 µM). `N#Cc1ccccc1OCC(=O)Nc1ccc2c(c1)OCCO2` gave a solubility kinetic of 19.7 µg/mL (≈ 63.5 µM). In the case of `O=C(COc1ccc(Br)cc1F)NC1CC1`, the solubility kinetic is reported as greater than 43.2 µg/mL. For `COc1ccccc1Cc1nc(-c2cccnc2)no1`, the solubility kinetic was 31.9 µg/mL (≈ 119 µM). Compound `Cc1cccc(C(=O)NCCC(=O)NCc2ccccc2F)c1` has a solubility kinetic greater than 47.2 µg/mL. `COc1cc(/C=C/[N+](=O)[O-])ccc1OC(=O)c1cccnc1` gave a solubility kinetic of 3.7 µg/mL (≈ 12.3 µM). Compound `CC(=O)Nc1ccc(S(=O)(=O)NC2C3(C)CCC(C3)C2(C)C)cc1` (stereo unspecified) has a solubility kinetic of less than 0.4 µg/mL. Compound `CC1CCCC(NC(=O)CCC(=O)c2ccc(F)cc2)C1C` (stereo unspecified) has a solubility kinetic of 33.8 µg/mL (≈ 111 µM). Compound `CC1(C)OC(=O)C(=Cc2ccc[nH]2)C(=O)O1` has a solubility kinetic of 25.4 µg/mL (≈ 115 µM). For `COC(=O)Cn1cc([N+](=O)[O-])nc1C`, the solubility kinetic was greater than 29.9 µg/mL. With `CC(C)N(Cc1nc(COc2ccccc2)no1)Cc1nccn1C` the solubility kinetic was 48.2 µg/mL (≈ 141 µM). In the case of `CCN1CCN(c2ccc(N)c(C)c2)CC1`, the solubility kinetic is reported as 28.7 µg/mL (≈ 131 µM). Compound `COCCn1c(SCC(=O)N2CCOCC2)nc2ccccc2c1=O` has a solubility kinetic of 51.5 µg/mL (≈ 142 µM). With `CCc1ccccc1NCc1cc(=O)oc2cc(C)ccc12` the solubility kinetic was 0.7 µg/mL (≈ 2.39 µM). `O=C(CN1C(=O)C2C3CCC(C3)C2C1=O)OCC(=O)c1ccccc1` (stereo unspecified) showed a solubility kinetic of 48.1 µg/mL (≈ 141 µM). Compound `COc1ccc(/C=C2\C(=O)ON=C2c2ccccc2)cc1OC` has a solubility kinetic of 45.7 µg/mL (≈ 148 µM). With `O=C(NCC1CCCO1)c1cccc(NC(=O)c2ccccc2)c1` (stereo unspecified) the solubility kinetic was greater than 48.7 µg/mL. `Cc1ccc(CNC(=O)CCn2c(=O)oc3ccccc32)cc1` gave a solubility kinetic of 5.1 µg/mL (≈ 16.4 µM). Work on `Cc1nc2c3c(sc2c(=O)[nH]1)NC(=O)CC3c1ccccc1Cl` (stereo unspecified) yielded a solubility kinetic of 1.5 µg/mL (≈ 4.34 µM). For `CCOc1ccccc1NC(=O)CN1CCC(NC(=O)Nc2ccccc2)CC1`, the solubility kinetic was 18.5 µg/mL (≈ 46.7 µM).
